Nine compounds from ChEMBL document CHEMBL1132137, “Synthesis and antiviral activity of some N-benzenesulphonylbenzimidazoles” (Bioorg Med Chem Lett, 1999) can be followed below.

In brackets after ≈: the same amount, converted by molar mass. Several values for one entry are separate records, joined by “and”; a condition that tells them apart may be missing. Identical values can stand only once.

For assay [1], the system named is Coxsackievirus B5. The experiment in a line: Antiviral activity against the Coxsackie B5 virus (RNA virus) at a concentration of 3 ug/mL was determined as total cell infectious dose 50/mL (TCID50) by viral yield assay. In kind it is functional.
For assay [2], the system named is Vero. The experiment in a line: (§1) Cytotoxicity on the vero cell culture infected with mL and was determined as reduction in protein content by the Lowry test. The assay is classed as functional, Chlorocebus sabaeus. On the set-up: unit not given here.
For assay [3], the system named is Vero. The assay is described as §1. The assay is classed as functional, Chlorocebus sabaeus. On the set-up: unit not given here. The source holds these as a separate data set.
Assay [4] has as its system Vero. The experiment in a line: Cytotoxicity on the vero cell culture infected with Coxsackie B5 virus at a concentration of 3 ug/mL was determined as cell viability by the MTT test. The assay is classed as functional, Chlorocebus sabaeus.
Assay [5] has as its system Vero. The experiment in a line: Cytotoxicity on the vero cell culture infected with Coxsackie B5 virus at a concentration of 5 ug/mL was determined as cell viability by the MTT test. In kind it is functional, Chlorocebus sabaeus.
In assay [6] the test system is Coxsackievirus B5. The experiment in a line: Antiviral activity against the Coxsackie B5 virus (RNA virus) at a concentration of 80 ug/mL was determined as total cell infectious dose 50/mL (TCID50) by viral yield assay. In kind it is functional.
The test system of assay [7] is Vero. The assay is described as §1. In kind it is functional, Chlorocebus sabaeus.
Assay [8] relates to Vero. The experiment in a line: Cytotoxicity on the vero cell culture infected with Coxsackie B5 virus at a concentration of 80 ug/mL was determined as cell viability by the MTT test. The assay is classed as functional, Chlorocebus sabaeus.
Assay [9] has as its system Coxsackievirus B5. The experiment in a line: Inhibitory concentration required to reduce viral plaque formation of Coxsackie B5 virus by 50%. The assay is classed as functional, organism-based. As to conditions: Enterovirus B.
Assay [10] has as its system Coxsackievirus B5. The experiment in a line: Antiviral activity against the Coxsackie B5 virus (RNA virus) at a concentration of 2 ug/mL was determined as total cell infectious dose 50/mL (TCID50) by viral yield assay. In kind it is functional.
Assay [11] concerns Human alphaherpesvirus 1. The experiment in a line: Antiviral activity against the Herpes simplex 1 virus (DNA virus) at a concentration of 2 ug/mL was determined as Plaque forming unit/mL(PFU) by plaque assay. In kind it is functional.
Assay [12] deals with Mumps virus. The experiment in a line: Antiviral activity against the Mumps virus (RNA virus) at a concentration of 2 ug/mL was determined as total cell infectious dose 50/mL (TCID50) by viral yield assay. The assay is classed as functional, Mumps orthorubulavirus.
The subject of assay [13] is Vero. The experiment in a line: Cytotoxicity on the vero cell culture infected with Coxsackie B5 virus at a concentration of 1 ug/mL was determined as cell viability by the MTT test. The assay is classed as functional, Chlorocebus sabaeus.
The test system of assay [14] is Vero. The experiment in a line: Cytotoxicity on the vero cell culture infected with Coxsackie B5 virus at a concentration of 2 ug/mL was determined as cell viability by the MTT test. In kind it is functional, Chlorocebus sabaeus.
Assay [15] has as its system Vero. Described as §1. In kind it is functional, Chlorocebus sabaeus. This is another data set of the same source.
Assay [16] concerns Vaccinia virus. The experiment in a line: Antiviral activity against the Vaccinia virus (DNA virus) at a concentration of 2 ug/mL was determined as Plaque forming unit/mL(PFU) by plaque assay. The assay is classed as functional, Orthopoxvirus vaccinia.
Assay [17] concerns Coxsackievirus B5. The experiment in a line: Antiviral activity against the Coxsackie B5 virus (RNA virus) at a concentration of 4 ug/mL was determined as total cell infectious dose 50/mL (TCID50) by viral yield assay. The assay is classed as functional.
Assay [18] has as its system Vero. Described as §1. In kind it is functional, Chlorocebus sabaeus. The source holds these as a separate data set.
Assay [19] has as its system Vero. The experiment in a line: Cytotoxicity on the vero cell culture infected with Coxsackie B5 virus at a concentration of 4 ug/mL was determined as cell viability by the MTT test. In kind it is functional, Chlorocebus sabaeus.
Assay [20] has as its system Coxsackievirus B5. The experiment in a line: Antiviral activity against the Coxsackie B5 virus (RNA virus) at a concentration of 5 ug/mL was determined as total cell infectious dose 50/mL (TCID50) by viral yield assay. In kind it is functional.
Assay [21] relates to Human alphaherpesvirus 1. The experiment in a line: Antiviral activity against the Herpes simplex 1 virus (DNA virus) at a concentration of 5 ug/mL was determined as Plaque forming unit/mL(PFU) by plaque assay. In kind it is functional.
The test system of assay [22] is Mumps virus. The experiment in a line: Antiviral activity against the Mumps virus (RNA virus) at a concentration of 5 ug/mL was determined as total cell infectious dose 50/mL (TCID50) by viral yield assay. The assay is classed as functional, Mumps orthorubulavirus.
For assay [23], the system named is Vero. The experiment in a line: Cytotoxicity on the vero cell culture infected with Coxsackie B5 virus at a concentration of 10 ug/mL was determined as cell viability by the MTT test. In kind it is functional, Chlorocebus sabaeus.
The subject of assay [24] is Vaccinia virus. The experiment in a line: Antiviral activity against the Vaccinia virus (DNA virus) at a concentration of 5 ug/mL was determined as Plaque forming unit/mL(PFU) by plaque assay. In kind it is functional, Orthopoxvirus vaccinia.

With `O=[N+]([O-])c1ccccc1S(=O)(=O)n1c(SCc2ccccn2)nc2cc(Cl)c(Cl)cc21`, the TCID50 in the assay with Coxsackievirus B5 [1] turned out to be 10000000 mL⁻¹. The Cytotoxicity with Vero [2] is given as 740.1; in the assay with Vero [3], 495.8. Moreover, the Cell viability is given as 1.12 in the assay on Vero [4] and 0.83 in the assay with Vero [5].
Take `N=C(N)N` [GUANIDINE]: the TCID50 with Coxsackievirus B5 [6] turned out to be 10000 mL⁻¹; with Coxsackievirus B5 [1], 1000000 mL⁻¹. Also, the results for the Cytotoxicity in the assay with Vero [7] and with Vero [2] were 825.7 and 839.4, respectively. For the same compound, the Cell viability with Vero [4] was determined as 1.45; in the assay on Vero [8], 1.41.
In the assay on Coxsackievirus B5 [9], `O=[N+]([O-])c1ccccc1S(=O)(=O)n1c(CCc2ccccn2)nc2cc(Cl)c(Cl)cc21` came in with an IC50 of 8 µg/mL (≈ 16.8 µM). Besides, the TCID50 with Coxsackievirus B5 [10] is 1000000 mL⁻¹; in the assay with Mumps virus [12], 100000 mL⁻¹. Further, the Activity is listed as 4700000 pfu/ml in the assay with Human alphaherpesvirus 1 [11] and 120 pfu/ml with Vaccinia virus [16]. Also, the Cytotoxicity with Vero [7] came to 784.8; in the assay with Vero [15] it was 840.5. Besides, the Cell viability is listed as 1.49 in the assay on Vero [13] and 1.36 in the assay on Vero [14].
In turn, `O=[N+]([O-])c1ccc(S(=O)(=O)n2c(SCc3ccccn3)nc3ccccc32)cc1` returned a TCID50 with Coxsackievirus B5 [17] of 1000000 mL⁻¹. Further, the Cytotoxicity with Vero [7] came out at 744.3; in the assay with Vero [18], 734.2. The values for the Cell viability in the assay on Vero [14] and in the assay on Vero [19] were 1.44 and 1.12, respectively.
As to `O=[N+]([O-])c1ccc(S(=O)(=O)n2c(Sc3ncccc3[N+](=O)[O-])nc3ccccc32)cc1`, the TCID50 with Coxsackievirus B5 [1] is 10000000 mL⁻¹. In addition, the Cytotoxicity with Vero [2] is given as 678.6; in the assay with Vero [3], 508.9. Also, the Cell viability with Vero [4] was 1.36; in the assay with Vero [5], 0.8.
Turning to `O=[N+]([O-])c1ccc(S(=O)(=O)n2c(Sc3ncccc3[N+](=O)[O-])nc3cc(Cl)c(Cl)cc32)cc1`, the TCID50 with Coxsackievirus B5 [1] was found to be 1000000 mL⁻¹. Besides, the results for the Cytotoxicity with Vero [2] and with Vero [3] were 595.6 and 456.1, respectively. The Cell viability with Vero [4] is 1.27; with Vero [5] it was 0.79.
Regarding `O=[N+]([O-])c1ccccc1S(=O)(=O)n1c(CCc2ccccn2)nc2ccccc21`, the results for the TCID50 in the assay on Coxsackievirus B5 [20] and in the assay on Mumps virus [22] were 100000 mL⁻¹ and 10000 mL⁻¹, respectively. The same compound came in with an IC50 in the assay on Coxsackievirus B5 [9] of 5 µg/mL (≈ 12.2 µM). For the same compound, the results for the Activity in the assay with Human alphaherpesvirus 1 [21] and in the assay with Vaccinia virus [24] were 1800000 pfu/ml and 750 pfu/ml, respectively. For the same compound, the Cytotoxicity was 627.8 in the assay with Vero [7] and 759.5 with Vero [3]. For the same compound, the Cell viability in the assay with Vero [23] was 0.82 and 1.23.
Turning to `O=[N+]([O-])c1ccc(S(=O)(=O)n2c(SCc3ccccn3)nc3cc(Cl)c(Cl)cc32)cc1`, in the assay on Coxsackievirus B5 [1], the TCID50 was 1000000 mL⁻¹. Also, the Cytotoxicity was 663.4 in the assay with Vero [2] and 540.8 in the assay on Vero [3]. For the same compound, the results for the Cell viability in the assay on Vero [4] and in the assay with Vero [5] were 1.23 and 0.89, respectively.
`O=[N+]([O-])c1ccccc1S(=O)(=O)n1c(SCc2ccccn2)nc2ccccc21` gave a TCID50 in the assay with Coxsackievirus B5 [10] of 10000000 mL⁻¹. Further, the Cytotoxicity in the assay on Vero [7] is 724.1; in the assay on Vero [15], 774.7. Besides, the Cell viability with Vero [13] was 1.42; with Vero [14], 1.02.
